The structures appear in SMILES notation. Where “and” joins values, the source holds several entries; their conditions need not be identical. Equal entries are not always repeated.

For experiment [1], the target named is T1, Human immunodeficiency virus type 1 integrase (Human immunodeficiency virus 1, UniProt Q7ZJM1). The experiment in a line: Inhibition of HIV1 integrase strand transfer activity.
Experiment [2] deals with T1, Human immunodeficiency virus type 1 integrase. Put plainly: Inhibition of HIV1 integrase 3'-end processing activity.

T1 sequence (Q7ZJM1 whole entry): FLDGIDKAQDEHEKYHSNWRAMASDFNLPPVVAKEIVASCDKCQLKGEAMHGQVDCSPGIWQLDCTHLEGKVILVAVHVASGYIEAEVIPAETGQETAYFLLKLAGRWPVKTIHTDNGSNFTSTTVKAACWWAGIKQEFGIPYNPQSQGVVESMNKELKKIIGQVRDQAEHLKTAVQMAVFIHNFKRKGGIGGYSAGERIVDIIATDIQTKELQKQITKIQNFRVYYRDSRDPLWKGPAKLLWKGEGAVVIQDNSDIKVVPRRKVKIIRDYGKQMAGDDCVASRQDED

Turning to `O=C1Nc2ccccc2/C1=N/NC(=O)c1ccccc1O`, the figures for the 50% inhibitory concentration (IC50) in experiment [1] and in experiment [2] were 57 µM and greater than 100 µM, respectively.
The like results for `Cn1c(=O)[nH]c(=O)c2c1nc(SCC(O)CCl)n2CC(O)COc1ccc(Cl)cc1` (stereo unspecified) were, in that order, greater than 100 µM and greater than 100 µM.
Turning to `CCCOc1ccc(/C=N/NC2=NC(c3ccccc3O)CC(c3ccccc3)=N2)c(O)c1` (stereo unspecified), the IC50 in experiment [1] is 60 µM; in experiment [2], 64 µM.
With `CCOc1cc(Br)cc(/C=N/c2ncccc2O)c1O`, the IC50 in experiment [1] came out at 81 µM; in experiment [2], 143 µM.
The like results for `O=C(NNC(=O)c1c(O)c2ccccc2[nH]c1=O)c1ccccc1[N+](=O)[O-]` were, in that order, 46 µM and 54 µM.
On to `COc1cc(C(=O)/C=C/c2ccc3c(c2)OCO3)cc(OC)c1OC`, for which the IC50 in experiment [1] and in experiment [2] was greater than 100 µM each time.
For `Oc1ccc(-c2csc(Nc3ncccn3)n2)cc1O`, the results for the IC50 in experiment [1] and in experiment [2] were 83 µM and 300 µM, respectively.
The matching figures for `COc1ccc(/C=C/C(=O)c2ccc(O)cc2O)cc1`: 39 µM and greater than 100 µM.
The like results for `O=C(Oc1ccc(/C=N/Nc2nnc3c(n2)[nH]c2ccccc23)cc1)c1ccc(Br)cc1` were, in that order, 800 µM and 857 µM.
In the case of `CCN(CC)c1nc(N/N=C/c2ccc([N+](=O)[O-])cc2)nc(Nc2ccc(C)c(Cl)c2)n1`, the IC50 in experiment [1] was 200 µM; in experiment [2], 192 µM.
The matching figures for `O=C(O)COc1ccccc1/C=N/Nc1nncc(-c2ccccc2)n1`: 224 µM and 212 µM.
The like results for `O=C(N/N=C/c1c[nH]c2ccccc12)c1ccc(O)c(O)c1` were, in that order, 460 µM and greater than 1000 µM.
Consider `COc1ccc(C(=O)NNC(=O)c2cc3ccccc3cc2O)cc1`, for which the IC50 in experiment [1] stood at 18 µM; in experiment [2], 49 µM.
Consider `O=C(CSc1nc(SCC(=O)NCc2ccco2)nc(SCC(=O)NCc2ccco2)n1)NCc1ccco1`, for which the IC50 in experiment [1] worked out at 12 µM; in experiment [2], 28 µM.
The matching figures for `Cc1nc(SCC(=O)c2ccc(O)c(O)c2)c(C#N)c(CC(C)C)c1C(N)=O`: 85 µM and greater than 100 µM.
Consider `O=C(CCC(=O)Nc1ccc([N+](=O)[O-])c(C(F)(F)F)c1)Nc1ccc([N+](=O)[O-])c(C(F)(F)F)c1`, for which the IC50 is 210 µM in experiment [1] and 196 µM in experiment [2].
For the compound `O=C(N/N=C/c1ccc(O)c(O)c1)c1ccccc1O`, the figures for the IC50 in experiment [1] and in experiment [2] were 26 µM and 70 µM, respectively.
On to `Cc1cc(O)nc(SCC(=O)c2ccc(O)c(O)c2)n1`, for which the IC50 in experiment [1] worked out at 130 µM; in experiment [2], 310 µM.
`COc1cccc(/C=C/C(=O)c2ccccc2)c1O`: the IC50 in experiment [1] and in experiment [2] was 2 µM throughout.
Regarding `CNc1nc(N/N=C/c2ccc(-c3ccc([N+](=O)[O-])cc3OC)o2)nc(Nc2ccccc2)n1`, the IC50 in experiment [1] amounted to 37 µM; in experiment [2] it was 81 µM.
On to `O=c1nc2n(-c3ccc(Cl)cc3)c3ccc([N+](=O)[O-])cc3cc-2c(=O)[nH]1`, for which the IC50 in experiment [1] came out at 49 µM; in experiment [2], 78 µM.
The matching figures for `O=S(=O)(Nc1ccc(Br)cc1)c1ccc(Sc2ccc(S(=O)(=O)Nc3ccc(Br)cc3)cc2)cc1`: 251 µM and 161 µM.
For the compound `O=C(Nc1ccccc1C(=O)O)c1ccc(C(=O)Nc2ccccc2C(=O)O)cc1`, the IC50 was 32 µM in experiment [1] and 67 µM in experiment [2].
The matching figures for `O=C(/C=C/c1ccc2c(c1)OCO2)c1ccccc1`: greater than 100 µM and greater than 100 µM.
The matching figures for `COc1ccc(NC(=O)CSc2nc(-c3ccncc3)nn2CC(=O)NCc2ccco2)cc1`: greater than 100 µM and greater than 100 µM.
As for `O=C(/C=C/c1cccc(NC(=O)c2cccs2)c1)c1ccccc1`, the IC50 in experiment [1] is 89 µM; in experiment [2] it was greater than 100 µM.
On to `O=C(Nc1nccs1)/C(O)=C/C(=O)c1ccc(Cl)cc1`, for which the IC50 in experiment [1] stood at 70 µM; in experiment [2] it was 95 µM.
Consider `CCCn1c(=O)c(C(=O)NNC(=O)COc2ccccc2)c(O)c2ccccc21`, for which the IC50 in experiment [1] and in experiment [2] was greater than 100 µM throughout.
For `Nc1cc(O)nc(SCC(=O)c2ccc(O)c(O)c2)n1`, the results for the IC50 in experiment [1] and in experiment [2] were 89 µM and 278 µM, respectively.
The matching figures for `CC(=O)Nc1ccc2c(c1)OCCOCCOc1cc(NC(C)=O)ccc1OCCOCCO2`: 680 µM and 679 µM.
Take `COc1cc(C(=O)/C=C/c2ccc3c(c2)OCO3)ccc1O`: the IC50 in experiment [1] and in experiment [2] was greater than 100 µM in each case.
In the case of `O=C(O)c1ccc(NCN2C(=O)c3ccc([N+](=O)[O-])cc3C2=O)cc1`, the IC50 in experiment [1] is 180 µM and 189 µM; in experiment [2] it was 180 µM and 138 µM.
Turning to `O=C(CNC(=O)c1ccc(Cl)cc1)OCC(=O)c1ccc([N+](=O)[O-])cc1`, the IC50 in experiment [1] stood at 542 µM; in experiment [2], 579 µM.
The matching figures for `CCCC(=O)NC(c1ccc(OC)c(OC)c1)c1cc(Cl)c2cccnc2c1O` (stereo unspecified): 90 µM and greater than 100 µM.
The like results for `NC(=O)NN=C1c2cc(S(=O)(=O)NCc3ccco3)ccc2-c2ccc(S(=O)(=O)NCc3ccco3)cc21` were, in that order, 20 µM and 92 µM.
The like results for `Oc1ccc(Cl)cc1/C=C/c1ccc2cccc(O)c2n1` were, in that order, 220 µM and 195 µM.
With `COc1ccc(C(=O)Nc2ccccc2C(=O)NC(C(=O)NNC(=O)c2ccccc2O)C(C)C)cc1` (stereo unspecified), the values for the half-inhibitory concentration (IC50) in experiment [1] and in experiment [2] were 16 µM and 19 µM, respectively.
The matching figures for `O=C(N/N=C/c1cccc([N+](=O)[O-])c1)c1cccc(C(=O)N/N=C/c2cccc([N+](=O)[O-])c2)n1`: 130 µM and 150 µM.
On to `CCCn1c(N/N=C/c2cc(Br)ccc2O)nc2c1c(=O)[nH]c(=O)n2C`, for which the values for the IC50 in experiment [1] and in experiment [2] were 80 µM and greater than 100 µM, respectively.
`O=C(/C=C/c1ccccc1O)c1ccc(O)cc1O`: the IC50 in experiment [1] worked out at 47 µM; in experiment [2] it was 53 µM.
The matching figures for `COc1ccc(OC)c(C(=O)/C=C/c2ccc3c(c2)OCO3)c1`: greater than 100 µM and greater than 100 µM.
The matching figures for `Cc1ccc(NC(=O)CN2C(=O)/C(=N\NC(=O)c3ccc4ccccc4n3)c3ccccc32)cc1`: 84 µM and 84 µM.
The like results for `CCCn1c(=O)c(C(=O)NNC(=O)CC(=O)OCC)c(O)c2ccccc21` were, in that order, 48 µM and greater than 100 µM.
Turning to `Cc1ccc(NCC(=O)N/N=C/c2cccc(OC(=O)c3ccc4c(c3)OCO4)c2)cc1`, the IC50 came to 731 µM in experiment [1] and 670 µM in experiment [2].
Turning to `CCCCCCc1nc2ccccc2c(=O)n1NC(=O)c1c(O)c2ccccc2n(CC)c1=O`, the IC50 in experiment [1] and in experiment [2] was greater than 100 µM each time.
For the compound `O=C(CSc1nc2ccccc2c(=O)n1CC1CCCO1)NNC(=O)c1ccccc1O` (stereo unspecified), the IC50 in experiment [1] was 60 µM; in experiment [2], 85 µM.
In the case of `CCc1cccc2c(SCC(=O)NNC(=O)c3ccccc3[N+](=O)[O-])nc(-c3ccc(F)cc3)nc12`, the IC50 in experiment [1] is 100 µM; in experiment [2] it was greater than 100 µM.
For the compound `O=C(CSc1nc(O)c2ccccc2n1)c1ccc(O)c(O)c1`, the results for the IC50 in experiment [1] and in experiment [2] were 77 µM and 87 µM, respectively.
In the case of `CCn1c(=O)c(C(=O)NNC(=O)c2ccc([N+](=O)[O-])cc2)c(O)c2ccccc21`, the IC50 amounted to 20 µM in experiment [1] and 32 µM in experiment [2].
For the compound `O=C(/C=C/c1ccccc1OC(=O)c1cc2ccccc2oc1=O)c1ccccc1`, the results for the IC50 in experiment [1] and in experiment [2] were 92 µM and greater than 100 µM, respectively.
The like results for `COc1cc([N+](=O)[O-])cc(/C=N/Nc2nc(Nc3ccccc3)nc(Nc3ccccc3)n2)c1O` were, in that order, 29 µM and 29 µM.
The matching figures for `O=C(O)c1cc(-c2ccc(/C=N/Nc3nc4nonc4nc3Nc3ccccc3F)o2)ccc1Cl`: 4 µM and 7 µM.
Consider `COc1cc(C(NC(=O)c2ccco2)NC(=O)c2ccco2)ccc1OCc1ccccc1`, for which the IC50 in experiment [1] and in experiment [2] was greater than 100 µM throughout.
As to `Cc1ccc(NP(=O)(Oc2ccccc2)Oc2ccccc2)cc1`, the half-inhibitory concentration (IC50) in experiment [1] and in experiment [2] was greater than 1000 µM in each case.
Consider `CCCc1nc2ccccc2c(=O)n1NC(=O)c1c(O)c2cccc3c2n(c1=O)CCC3`, for which the IC50 in experiment [1] was 58 µM; in experiment [2], 64 µM.
As for `O=C(NNC(=O)c1c(O)c2ccccc2[nH]c1=O)c1ccccc1`, the IC50 came out at 28 µM in experiment [1] and 100 µM in experiment [2].
On to `O=C(NNC(=O)c1c(O)c2ccccc2[nH]c1=O)c1cccc([N+](=O)[O-])c1`, for which the IC50 in experiment [1] was determined as 1 µM; in experiment [2], 3.3 µM.
The like results for `COc1ccc(NC(=O)c2cccc(S(=O)(=O)Nc3ccc(C(=O)O)cc3)c2)cc1` were, in that order, 70 µM and 80 µM.
The like results for `O=C(COc1ccc2ccccc2c1)NNC(=O)c1cc2ccccc2cc1O` were, in that order, 12 µM and 18 µM.
The matching figures for `COc1ccc(Nc2nc(NCc3ccco3)nc(N/N=C/c3ccc(Br)cc3)n2)cc1`: 13 µM and 18 µM.
`CCc1nc2sc3c(c2c2nnc(SCC(=O)NNC(=O)c4ccc(OC)cc4)n12)CCCC3`: the IC50 is 100 µM in experiment [1] and greater than 100 µM in experiment [2].
With `O=C(NNC(=O)c1c(O)c2ccccc2[nH]c1=O)c1ccccc1F`, the IC50 in experiment [1] was found to be 30 µM; in experiment [2], 52 µM.
The matching figures for `O=C(CSc1nnc(-c2ccncc2)[nH]1)c1ccc(O)cc1O`: 25 µM and 91 µM.
The matching figures for `CCCn1c(=O)c(C(=O)NNC(=O)c2ccccc2)c(O)c2ccccc21`: 66 µM and 100 µM.
Regarding `Cc1cc(C)cc(OCC(=O)NNC(=O)c2cc3ccccc3oc2=O)c1`, the IC50 in experiment [1] was found to be 72 µM; in experiment [2] it was 74 µM.
The matching figures for `O=C(COc1ccc2ccccc2c1)NNC(=O)c1ccccc1O`: 18 µM and 29 µM.
In the case of `O=C(Nc1cccc(O)c1)c1cc(C(=O)Nc2cccc(O)c2)cc(N2C(=O)c3ccccc3C2=O)c1`, the IC50 in experiment [1] and in experiment [2] was 100 µM each time.
On to `Cn1c(SCC(=O)NNC(=O)c2cccc(O)c2)nc2sc3c(c2c1=O)CCC3`, for which the IC50 is 100 µM in experiment [1] and 87 µM in experiment [2].

As usually defined, the IC50 is the concentration that gives 50% inhibition. High values mean weaker potency, low ones greater potency.

Source of the values: ChEMBL document CHEMBL1139988, “Discovery of structurally diverse HIV-1 integrase inhibitors based on a chalcone pharmacophore” (Bioorg Med Chem, 2007).
